± gives the expanded uncertainty stated by the source.
Conditions: Liquid

CCCCn1cc[n+](C)c1.[Cl-] [1-butyl-3-methylimidazolium chloride]
Conditions | mass density [kg/m3]
348.15 K, 101.33 kPa | 1055.7 ± 2.4
352.1 K, 100 kPa | 1054 ± 2
352.1 K, 10000 kPa | 1058 ± 2
352.1 K, 20000 kPa | 1062 ± 2
352.1 K, 30000 kPa | 1067 ± 2
352.1 K, 40000 kPa | 1071 ± 2
352.1 K, 50000 kPa | 1074 ± 3
352.1 K, 60000 kPa | 1078 ± 3
352.1 K, 70000 kPa | 1082 ± 3
352.1 K, 80000 kPa | 1085 ± 3
352.1 K, 90000 kPa | 1089 ± 3
352.1 K, 100000 kPa | 1093 ± 3
352.1 K, 110000 kPa | 1096 ± 3
352.1 K, 120000 kPa | 1099 ± 3
352.1 K, 130000 kPa | 1102 ± 3
352.1 K, 140000 kPa | 1106 ± 3
352.1 K, 150000 kPa | 1109 ± 3
352.1 K, 160000 kPa | 1112 ± 3
352.1 K, 170000 kPa | 1115 ± 3
352.1 K, 180000 kPa | 1118 ± 3
352.1 K, 190000 kPa | 1121 ± 4
352.1 K, 200000 kPa | 1124 ± 4
353.15 K, 101.33 kPa | 1053 ± 2.4
358.15 K, 101.33 kPa | 1050.4 ± 2.4
363.15 K, 101.33 kPa | 1047.7 ± 2.4
368.15 K, 101.33 kPa | 1045.1 ± 2.4
372.4 K, 10000 kPa | 1046 ± 2
372.4 K, 20000 kPa | 1050 ± 2
372.4 K, 30000 kPa | 1055 ± 2
372.4 K, 40000 kPa | 1059 ± 2
372.4 K, 50000 kPa | 1063 ± 2
372.4 K, 60000 kPa | 1067 ± 3
372.4 K, 70000 kPa | 1071 ± 3
372.4 K, 80000 kPa | 1074 ± 3
372.4 K, 90000 kPa | 1078 ± 3
372.4 K, 100000 kPa | 1081 ± 3
372.4 K, 110000 kPa | 1085 ± 3
372.4 K, 120000 kPa | 1088 ± 3
372.4 K, 130000 kPa | 1092 ± 3
372.4 K, 140000 kPa | 1095 ± 3
372.4 K, 150000 kPa | 1099 ± 3
372.4 K, 160000 kPa | 1102 ± 3
372.4 K, 170000 kPa | 1105 ± 3
372.4 K, 180000 kPa | 1108 ± 3
372.4 K, 190000 kPa | 1111 ± 3
372.4 K, 200000 kPa | 1115 ± 4
373.15 K, 101.33 kPa | 1042.6 ± 2.4
392.3 K, 10000 kPa | 1034 ± 2
392.3 K, 20000 kPa | 1038 ± 2
392.3 K, 30000 kPa | 1043 ± 2
392.3 K, 40000 kPa | 1047 ± 2
392.3 K, 50000 kPa | 1052 ± 2
392.3 K, 60000 kPa | 1056 ± 2
392.3 K, 70000 kPa | 1059 ± 3
392.3 K, 80000 kPa | 1063 ± 3
392.3 K, 90000 kPa | 1067 ± 3
392.3 K, 100000 kPa | 1071 ± 3
392.3 K, 110000 kPa | 1075 ± 3
392.3 K, 120000 kPa | 1078 ± 3
392.3 K, 130000 kPa | 1081 ± 3
392.3 K, 140000 kPa | 1085 ± 3
392.3 K, 150000 kPa | 1088 ± 3
392.3 K, 160000 kPa | 1092 ± 3
392.3 K, 170000 kPa | 1095 ± 3
392.3 K, 180000 kPa | 1099 ± 3
392.3 K, 190000 kPa | 1102 ± 3
392.3 K, 200000 kPa | 1105 ± 3
412.3 K, 10000 kPa | 1022 ± 2
412.3 K, 20000 kPa | 1027 ± 2
412.3 K, 30000 kPa | 1032 ± 2
412.3 K, 40000 kPa | 1036 ± 2
412.3 K, 50000 kPa | 1041 ± 2
412.3 K, 60000 kPa | 1045 ± 2
412.3 K, 70000 kPa | 1049 ± 2
412.3 K, 80000 kPa | 1053 ± 2
412.3 K, 90000 kPa | 1057 ± 3
412.3 K, 100000 kPa | 1061 ± 3
412.3 K, 110000 kPa | 1064 ± 3
412.3 K, 120000 kPa | 1068 ± 3
412.3 K, 130000 kPa | 1072 ± 3
412.3 K, 140000 kPa | 1076 ± 3
412.3 K, 150000 kPa | 1079 ± 3
412.3 K, 160000 kPa | 1082 ± 3
412.3 K, 170000 kPa | 1086 ± 3
412.3 K, 180000 kPa | 1089 ± 3
412.3 K, 190000 kPa | 1092 ± 3
412.3 K, 200000 kPa | 1096 ± 3
432.2 K, 10000 kPa | 1011 ± 2
432.2 K, 20000 kPa | 1016 ± 2
432.2 K, 30000 kPa | 1021 ± 2
432.2 K, 40000 kPa | 1026 ± 2
432.2 K, 50000 kPa | 1030 ± 2
432.2 K, 60000 kPa | 1035 ± 2
432.2 K, 70000 kPa | 1039 ± 2
432.2 K, 80000 kPa | 1043 ± 2
432.2 K, 90000 kPa | 1047 ± 2
432.2 K, 100000 kPa | 1051 ± 3
432.2 K, 110000 kPa | 1055 ± 3
432.2 K, 120000 kPa | 1059 ± 3
432.2 K, 130000 kPa | 1062 ± 3
432.2 K, 140000 kPa | 1066 ± 3
432.2 K, 150000 kPa | 1069 ± 3
432.2 K, 160000 kPa | 1073 ± 3
432.2 K, 170000 kPa | 1076 ± 3
432.2 K, 180000 kPa | 1080 ± 3
432.2 K, 190000 kPa | 1083 ± 3
432.2 K, 200000 kPa | 1087 ± 3
452 K, 10000 kPa | 1000 ± 2
452 K, 20000 kPa | 1005 ± 2
452 K, 30000 kPa | 1010 ± 2
452 K, 40000 kPa | 1015 ± 2
452 K, 50000 kPa | 1020 ± 2
452 K, 60000 kPa | 1024 ± 2
452 K, 70000 kPa | 1028 ± 2
452 K, 80000 kPa | 1032 ± 2
452 K, 90000 kPa | 1037 ± 2
452 K, 100000 kPa | 1041 ± 2
452 K, 110000 kPa | 1045 ± 3
452 K, 120000 kPa | 1048 ± 3
452 K, 130000 kPa | 1052 ± 3
452 K, 140000 kPa | 1056 ± 3
452 K, 150000 kPa | 1060 ± 3
452 K, 160000 kPa | 1063 ± 3
452 K, 170000 kPa | 1067 ± 3
452 K, 180000 kPa | 1070 ± 3
452 K, 190000 kPa | 1074 ± 3
452 K, 200000 kPa | 1077 ± 3

Source: the NIST ThermoML archive (doi:10.1021/je1008747)
